Relative viability data for 4 cell lines are collected here from the supplement of paper PMC10307832.

Common to all, as to assay: relative viability (nuclei count vs DMSO), 5 days (fraction); higher = more cells survive
Compound in the experiment “Tivantinib + Lapatinib”: O=C1NC(=O)[C@@H](c2cn3c4c(cccc24)CCC3)[C@@H]1c1c[nH]c2ccccc12 [Tivantinib] + CS(=O)(=O)CCNCc1ccc(-c2ccc3ncnc(Nc4ccc(OCc5cccc(F)c5)c(Cl)c4)c3c2)o1 [Lapatinib] (partner 2 µM)
The procedure, abridged: (§1)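 Nuclei were stained with Hoechst during a one-step fixation (final 0.05% Triton X-100, 1% formaldehyde, 1 ug/ml Hoechst) carried out 5 days after dosing, then counted on 4× images. The cells, lung cancer lines in 1536-well plates, had been dosed by pin tool the day after seeding with one drug alone or a fixed anchor-drug dose plus five library-drug doses (not always all listed) in √10 steps. Relative viability is the nuclei count in treated wells divided by that in vehicle wells, and each value is the median of duplicate plates.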

Compound in the experiment “Crenolanib + Pemetrexed”: CC1(COc2ccc3c(c2)ncn3-c2ccc3cccc(N4CCC(N)CC4)c3n2)COC1 [Crenolanib] + Nc1nc2[nH]cc(CCc3ccc(C(=O)N[C@@H](CCC(=O)O)C(=O)O)cc3)c2c(=O)[nH]1 [Pemetrexed] (partner 0.2 µM)
The procedure, abridged: as §1

Compound in the experiment “Crenolanib + Linsitinib”: CC1(COc2ccc3c(c2)ncn3-c2ccc3cccc(N4CCC(N)CC4)c3n2)COC1 [Crenolanib] + C[C@]1(O)C[C@@H](c2nc(-c3ccc4ccc(-c5ccccc5)nc4c3)c3c(N)nccn32)C1 [Linsitinib] (partner 1 µM)
Put shortly:
as §1

Compound in the experiment “Crenolanib + Dasatinib”: CC1(COc2ccc3c(c2)ncn3-c2ccc3cccc(N4CCC(N)CC4)c3n2)COC1 [Crenolanib] + Cc1nc(Nc2ncc(C(=O)Nc3c(C)cccc3Cl)s2)cc(N2CCN(CCO)CC2)n1 [Dasatinib] (partner 0.075 µM)
Put shortly:
as §1

As to LC-2-ad, the relative viability with Tivantinib + Lapatinib (first compound 0.01 µM) was found to be 1.03; in the experiment with Tivantinib + Lapatinib (first compound 0.03162 µM) it was 0.929; with Tivantinib + Lapatinib (first compound 0.1 µM), 0.928; with Tivantinib + Lapatinib (first compound 0.3162 µM) it was 1.06; with Crenolanib + Pemetrexed (first compound 0.01 µM), 0.265; with Crenolanib + Pemetrexed (first compound 0.03162 µM), 0.287. The relative viability in the experiment with Crenolanib + Pemetrexed (first compound 0.1 µM) stood at 0.277; with Crenolanib + Pemetrexed (first compound 0.3162 µM) it was 0.291; with Crenolanib + Pemetrexed (first compound 1 µM), 0.261; in the experiment with Crenolanib + Linsitinib (first compound 0.01 µM), 0.834; in the experiment with Crenolanib + Linsitinib (first compound 0.03162 µM), 0.887; in the experiment with Crenolanib + Linsitinib (first compound 0.1 µM), 0.797. The relative viability is 0.844 with Crenolanib + Linsitinib (first compound 0.3162 µM); 0.873 with Crenolanib + Linsitinib (first compound 1 µM); 0.707 with Crenolanib + Dasatinib (first compound 0.01 µM); 0.555 with Crenolanib + Dasatinib (first compound 0.03162 µM); 0.486 with Crenolanib + Dasatinib (first compound 0.1 µM); 0.741 in the experiment with Crenolanib + Dasatinib (first compound 0.3162 µM). Also, in the experiment with Crenolanib + Dasatinib (first compound 1 µM), the relative viability worked out at 0.533.
For the cell line NCI-H358, the relative viability in the experiment with Tivantinib + Lapatinib (first compound 0.01 µM) came to 0.53; with Tivantinib + Lapatinib (first compound 0.03162 µM), 0.42; in the experiment with Tivantinib + Lapatinib (first compound 0.1 µM), 0.418; with Tivantinib + Lapatinib (first compound 0.3162 µM) it was 0.403; in the experiment with Crenolanib + Pemetrexed (first compound 0.01 µM), 0.176; in the experiment with Crenolanib + Pemetrexed (first compound 0.03162 µM), 0.169. Moreover, the relative viability with Crenolanib + Pemetrexed (first compound 0.1 µM) was found to be 0.176; in the experiment with Crenolanib + Pemetrexed (first compound 0.3162 µM), 0.178; with Crenolanib + Pemetrexed (first compound 1 µM), 0.188; with Crenolanib + Linsitinib (first compound 0.01 µM) it was 0.819; with Crenolanib + Linsitinib (first compound 0.03162 µM) it was 0.682; with Crenolanib + Linsitinib (first compound 0.1 µM), 0.566. Moreover, the relative viability in the experiment with Crenolanib + Linsitinib (first compound 0.3162 µM) came to 0.727; in the experiment with Crenolanib + Linsitinib (first compound 1 µM), 0.58; in the experiment with Crenolanib + Dasatinib (first compound 0.01 µM), 0.146; with Crenolanib + Dasatinib (first compound 0.03162 µM), 0.187; with Crenolanib + Dasatinib (first compound 0.1 µM) it was 0.188; with Crenolanib + Dasatinib (first compound 0.3162 µM) it was 0.162. The relative viability in the experiment with Crenolanib + Dasatinib (first compound 1 µM) stood at 0.168.
With PC-14, the relative viability came to 0.307 with Tivantinib + Lapatinib (first compound 0.01 µM); 0.35 with Tivantinib + Lapatinib (first compound 0.03162 µM); 0.3 with Tivantinib + Lapatinib (first compound 0.1 µM); 0.325 with Tivantinib + Lapatinib (first compound 0.3162 µM); 0.137 in the experiment with Crenolanib + Pemetrexed (first compound 0.01 µM); 0.127 with Crenolanib + Pemetrexed (first compound 0.03162 µM). The relative viability came out at 0.16 with Crenolanib + Pemetrexed (first compound 0.1 µM); 0.133 in the experiment with Crenolanib + Pemetrexed (first compound 0.3162 µM); 0.143 with Crenolanib + Pemetrexed (first compound 1 µM); 1.07 with Crenolanib + Linsitinib (first compound 0.01 µM); 0.93 with Crenolanib + Linsitinib (first compound 0.03162 µM); 1.03 in the experiment with Crenolanib + Linsitinib (first compound 0.1 µM). In addition, the relative viability with Crenolanib + Linsitinib (first compound 0.3162 µM) is 1.05; with Crenolanib + Linsitinib (first compound 1 µM), 0.93; with Crenolanib + Dasatinib (first compound 0.01 µM) it was 0.289; with Crenolanib + Dasatinib (first compound 0.03162 µM) it was 0.262; in the experiment with Crenolanib + Dasatinib (first compound 0.1 µM), 0.259; with Crenolanib + Dasatinib (first compound 0.3162 µM), 0.263. In addition, the relative viability with Crenolanib + Dasatinib (first compound 1 µM) is 0.266.
As for CAL-12T, the relative viability turned out to be 0.723 in the experiment with Tivantinib + Lapatinib (first compound 0.01 µM); 0.62 with Tivantinib + Lapatinib (first compound 0.03162 µM); 0.644 in the experiment with Tivantinib + Lapatinib (first compound 0.1 µM); 0.424 with Tivantinib + Lapatinib (first compound 0.3162 µM); 1.28 with Crenolanib + Pemetrexed (first compound 0.01 µM); 1.27 in the experiment with Crenolanib + Pemetrexed (first compound 0.03162 µM). Further, the relative viability in the experiment with Crenolanib + Pemetrexed (first compound 0.1 µM) turned out to be 1.22; in the experiment with Crenolanib + Pemetrexed (first compound 0.3162 µM) it was 1.34; in the experiment with Crenolanib + Pemetrexed (first compound 1 µM), 1.31; with Crenolanib + Linsitinib (first compound 0.01 µM), 0.967; in the experiment with Crenolanib + Linsitinib (first compound 0.03162 µM) it was 0.7; with Crenolanib + Linsitinib (first compound 0.1 µM), 0.768. The relative viability is 0.869 with Crenolanib + Linsitinib (first compound 0.3162 µM); 0.846 in the experiment with Crenolanib + Linsitinib (first compound 1 µM); 0.455 with Crenolanib + Dasatinib (first compound 0.01 µM); 0.51 in the experiment with Crenolanib + Dasatinib (first compound 0.03162 µM); 0.498 with Crenolanib + Dasatinib (first compound 0.1 µM); 0.615 with Crenolanib + Dasatinib (first compound 0.3162 µM). Besides, the relative viability with Crenolanib + Dasatinib (first compound 1 µM) turned out to be 0.514.
